This passage reports logD, logP and pKa results from ChEMBL document CHEMBL1133011, “DNA binding, solubility, and partitioning characteristics of extended lexitropsins” (J Med Chem, 2000).

The nature of data set [1]: Distribution coefficient of the compound at pH 7.4 (logD). Particulars: octanol/water.
The nature of data set [2]: Partition coefficient of the compound (logP). Particulars: octanol/water.
Data set [3] is described as follows: The ionization constant (pKa) for the compound.

SMILES strings stand for the structures.

`CN(C)CCCNC(=O)c1cc(NC(=O)c2cc(NC(=O)/C=C/C(=O)Nc3cc(C(=O)Nc4cc(C(=O)NCCCN(C)C)n(C)c4)n(C)c3)cn2C)cn1C`: in data set [1], the logD (as a rule, lipophilicity at a set pH, counting ionised and neutral species) was -1.03. The logP (in general, a log measure of how a compound divides between an organic and an aqueous phase) in data set [2] stood at 3.18. Also, the pKa (commonly the pH at which an ionisable group is half protonated) in data set [3] came to 9.5.
The corresponding values for `CN(C)CCCNC(=O)c1cc(NC(=O)c2cc(NC(=O)CNC(=O)c3cccc(C(=O)NCC(=O)Nc4cc(C(=O)Nc5cc(C(=O)NCCCN(C)C)n(C)c5)n(C)c4)c3)cn2C)cn1C` are -2.74, 1.47 and 9.5.
The corresponding values for `CN(C)CCCNC(=O)c1cc(NC(=O)c2cc(NC(=O)c3cc(NC(=O)c4cc(NC(=O)c5cc(NC(=O)c6cc(NC(=O)CCCN(C)C)cn6C)cn5C)cn4C)cn3C)cn2C)cn1C` are 0.47, 4.68 and 9.5.
Regarding `CN(C)CCCNC(=O)c1cc(NC(=O)c2cc(NC(=O)c3cc(NC(=O)c4cc(NC(=O)c5cc(NC(=O)CCCN(C)C)cn5C)cn4C)cn3C)cn2C)cn1C`, in data set [1], the logD is -0.32. In addition, the logP in data set [2] was 3.89. Besides, the pKa in data set [3] was found to be 9.5.
The matching figures for `CN(C)CCCNC(=O)c1cc(NC(=O)c2cc(NC(=O)c3cc(NC=O)cn3C)cn2C)cn1C`: 0.07, 2.17 and 9.5.
The matching figures for `Cn1cc(NC(=O)c2cc(NC(=O)c3cc(NC=O)cn3C)cn2C)cc1C(=O)NCCC(=N)N` [STALLIMYCIN]: -5.87, -0.87 and 12.4.
